Measurements from PubChem BioAssay AID316 (DTP/NCI, 2004).
Values joined by “and” are separate entries in the source; they are usually repeats but may differ in a detail not shown here. Equal values may be shown once. Inconclusive results and toxic doses are left out.

Test system: P1534 leukemia ip, CD2F1 mice, survival T/C
Assay: NCI In Vivo Anticancer Drug Screen. Data for tumor model P1534 Leukemia (intraperitoneal) in CD2F1 (CDF1) mice
Conditions: endpoint: mean survival time, higher = longer survival
Experimental: The antitumor activity of compounds was measured in mice bearing transplantable tumors. Survival or tumor size were measured and the results are expressed as the measurement made in the treated group (T) divided by the measurement made in the vehicle treated control group (C). The tumor model used in this assay is P1534 Leukemia (intraperitoneal) in CD2F1 (CDF1) mice

[1] = dose: 1.25 mg/kg/injection, schedule: Q01DX010 (ip), vehicle: saline
[2] = dose: 2.5 mg/kg/injection, schedule: Q01DX010 (ip), vehicle: saline
[3] = dose: 10.0 mg/kg/injection, schedule: Q01DX010 (ip), vehicle: saline
[4] = dose: 62.5 mg/kg/injection, schedule: Q01DX010 (ip), vehicle: saline
[5] = dose: 125.0 mg/kg/injection, schedule: Q01DX010 (ip), vehicle: saline
[6] = dose: 250.0 mg/kg/injection, schedule: Q01DX010 (ip), vehicle: saline
[7] = dose: 50.0 mg/kg/injection, schedule: Q01DX010 (ip), vehicle: saline
[8] = dose: 100.0 mg/kg/injection, schedule: Q01DX010 (ip), vehicle: saline
[9] = dose: 200.0 mg/kg/injection, schedule: Q01DX010 (ip), vehicle: saline

CC[n+]1c(-c2ccccc2)c2cc(N)ccc2c2ccc(N)cc21
T/C [1]: 117 % of control | T/C [2]: 117 % of control | T/C [3]: 150 % of control

O=C(O)CCCc1ccc(N(CCCl)CCCl)cc1
T/C (dose: 6.25 mg/kg/injection, schedule: Q01DX010 (ip), vehicle: other): 114 % of control | T/C (dose: 25.0 mg/kg/injection, schedule: Q01DX010 (ip), vehicle: other): 103 % of control

O=c1cn[nH]c(=O)[nH]1
T/C [4]: 94 % of control and 100 % of control | T/C [5]: 100 % of control | T/C [6]: 94 % of control and 100 % of control | T/C (dose: 500.0 mg/kg/injection, schedule: Q01DX010 (ip), vehicle: saline): 105 % of control and 111 % of control

COc1ccc2c(c1O)-c1c(OC)c(OC)cc3c1[C@H](C2)[N+](C)(C)CC3
T/C [1]: 96 % of control | T/C [2]: 103 % of control | T/C (dose: 5.0 mg/kg/injection, schedule: Q01DX010 (ip), vehicle: saline): 103 % of control | T/C [3]: 100 % of control

NC(N)=NCCCC(N)C(=O)NCCCCCCNC(=O)C(N)CCCN=C(N)N (stereo not drawn)
T/C (dose: 25.0 mg/kg/injection, schedule: Q01DX010 (ip), vehicle: saline): 100 % of control | T/C [7]: 96 % of control | T/C [8]: 100 % of control | T/C [9]: 100 % of control

CC(/C=N/N=C(N)N)=N\NC(N)=S
T/C [7]: 100 % of control | T/C [8]: 100 % of control | T/C [9]: 100 % of control

C[n+]1c2ccccc2nc2c(N)cc(N)cc21
T/C (dose: 5.2 mg/kg/injection, schedule: Q01DX010 (ip), vehicle: saline): 114 % of control

COc1cc2c(c(OC)c1OC)-c1ccc(OC)c(=O)cc1[C@@H](NC(C)=O)CC2
T/C (dose: 0.04 mg/kg/injection, schedule: Q01DX010 (ip), vehicle: saline): 100 % of control | T/C (dose: 0.05 mg/kg/injection, schedule: Q01DX010 (ip), vehicle: saline): 123 % of control | T/C (dose: 0.06 mg/kg/injection, schedule: Q01DX010 (ip), vehicle: saline): 100 % of control | T/C (dose: 0.12 mg/kg/injection, schedule: Q01DX010 (ip), vehicle: saline): 188 % of control | T/C (dose: 0.18 mg/kg/injection, schedule: Q01DX010 (ip), vehicle: saline): 213 % of control | T/C (dose: 0.2 mg/kg/injection, schedule: Q01DX015 (ip), vehicle: saline): 161 % of control | T/C (dose: 0.2 mg/kg/injection, schedule: Q02DX008 (ip), vehicle: saline): 174 % of control | T/C (dose: 0.27 mg/kg/injection, schedule: Q01DX010 (ip), vehicle: saline): 253 % of control | T/C (dose: 0.3 mg/kg/injection, schedule: Q01DX015 (ip), vehicle: saline): 212 % of control | T/C (dose: 0.3 mg/kg/injection, schedule: Q02DX008 (ip), vehicle: saline): 159 % of control | T/C (dose: 0.45 mg/kg/injection, schedule: Q01DX015 (ip), vehicle: saline): 257 % of control | T/C (dose: 0.45 mg/kg/injection, schedule: Q02DX008 (ip), vehicle: saline): 261 % of control | T/C (dose: 0.67 mg/kg/injection, schedule: Q02DX008 (ip), vehicle: saline): 318 % of control | T/C (dose: 0.9 mg/kg/injection, schedule: Q## X004 (ip), vehicle: saline): 348 % of control | T/C (dose: 1.0 mg/kg/injection, schedule: Q02DX008 (ip), vehicle: saline): 304 % of control | T/C (dose: 1.0 mg/kg/injection, schedule: Q## X032 (ip), vehicle: saline): 242 % of control | T/C (dose: 1.1 mg/kg/injection, schedule: Q01DX001 (ip), vehicle: saline): 255 % of control | T/C (dose: 1.3 mg/kg/injection, schedule: Q## X004 (ip), vehicle: saline): 328 % of control | T/C (dose: 1.6 mg/kg/injection, schedule: Q## X032 (ip), vehicle: saline): 352 % of control | T/C (dose: 1.7 mg/kg/injection, schedule: Q01DX001 (ip), vehicle: saline): 208 % of control | T/C (dose: 2.4 mg/kg/injection, schedule: Q## X032 (ip), vehicle: saline): 240 % of control | T/C (dose: 2.5 mg/kg/injection, schedule: Q01DX001 (ip), vehicle: saline): 241 % of control

Cc1n[nH]c(C)c1Br
T/C (dose: 150.0 mg/kg/injection, schedule: Q01DX010 (ip), vehicle: water): 101 % of control | T/C (dose: 200.0 mg/kg/injection, schedule: Q01DX010 (ip), vehicle: water): 104 % of control

COc1cc2c3c(c4ccc(OC)c(OC)c4c2cc1OC)CN1CCC[C@@H]1C3
T/C (dose: 2.5 mg/kg/injection, schedule: Q01DX010 (ip), vehicle: water): 105 % of control | T/C (dose: 5.0 mg/kg/injection, schedule: Q01DX010 (ip), vehicle: water): 102 % of control | T/C (dose: 7.5 mg/kg/injection, schedule: Q01DX010 (ip), vehicle: water): 124 % of control | T/C (dose: 10.0 mg/kg/injection, schedule: Q01DX010 (ip), vehicle: water): 113 % of control

COc1ccc2c(c1OC)C(=O)O[C@@H]2[C@H]1c2c(cc3c(c2OC)OCO3)CCN1C
T/C (dose: 31.3 mg/kg/injection, schedule: Q01DX010 (ip), vehicle: saline): 103 % of control | T/C [4]: 92 % of control and 100 % of control | T/C [5]: 100 % of control | T/C [6]: 100 % of control
